Measured values taken from ChEMBL document CHEMBL5365546, “The Potential of NOD-like Receptor Protein 3 Inflammasome Inhibitors in the Treatments of Diseases” (ACS Med Chem Lett, 2023).

Key:
[1] = biological target: T1, NACHT, LRR and PYD domains-containing protein 3 (Homo sapiens, UniProt Q96P20); experiment: Inhibition of NLRP3 in human PBMC assessed as reduction in LPS-induced TNF level preincubated for 30 mins followed by LPS-stimulation and measured after 6 hrs by MSD assay; format: cell-based
[2] = biological target: T1, NACHT, LRR and PYD domains-containing protein 3; experiment: Inhibition of NLRP3 in human PBMC assessed as reduction in LPS-induced IL-1beta level preincubated for 30 mins followed by LPS-stimulation and measured after 6 hrs by MSD assay; format: cell-based

T1 sequence (Q96P20 whole entry, the tested form may be a part): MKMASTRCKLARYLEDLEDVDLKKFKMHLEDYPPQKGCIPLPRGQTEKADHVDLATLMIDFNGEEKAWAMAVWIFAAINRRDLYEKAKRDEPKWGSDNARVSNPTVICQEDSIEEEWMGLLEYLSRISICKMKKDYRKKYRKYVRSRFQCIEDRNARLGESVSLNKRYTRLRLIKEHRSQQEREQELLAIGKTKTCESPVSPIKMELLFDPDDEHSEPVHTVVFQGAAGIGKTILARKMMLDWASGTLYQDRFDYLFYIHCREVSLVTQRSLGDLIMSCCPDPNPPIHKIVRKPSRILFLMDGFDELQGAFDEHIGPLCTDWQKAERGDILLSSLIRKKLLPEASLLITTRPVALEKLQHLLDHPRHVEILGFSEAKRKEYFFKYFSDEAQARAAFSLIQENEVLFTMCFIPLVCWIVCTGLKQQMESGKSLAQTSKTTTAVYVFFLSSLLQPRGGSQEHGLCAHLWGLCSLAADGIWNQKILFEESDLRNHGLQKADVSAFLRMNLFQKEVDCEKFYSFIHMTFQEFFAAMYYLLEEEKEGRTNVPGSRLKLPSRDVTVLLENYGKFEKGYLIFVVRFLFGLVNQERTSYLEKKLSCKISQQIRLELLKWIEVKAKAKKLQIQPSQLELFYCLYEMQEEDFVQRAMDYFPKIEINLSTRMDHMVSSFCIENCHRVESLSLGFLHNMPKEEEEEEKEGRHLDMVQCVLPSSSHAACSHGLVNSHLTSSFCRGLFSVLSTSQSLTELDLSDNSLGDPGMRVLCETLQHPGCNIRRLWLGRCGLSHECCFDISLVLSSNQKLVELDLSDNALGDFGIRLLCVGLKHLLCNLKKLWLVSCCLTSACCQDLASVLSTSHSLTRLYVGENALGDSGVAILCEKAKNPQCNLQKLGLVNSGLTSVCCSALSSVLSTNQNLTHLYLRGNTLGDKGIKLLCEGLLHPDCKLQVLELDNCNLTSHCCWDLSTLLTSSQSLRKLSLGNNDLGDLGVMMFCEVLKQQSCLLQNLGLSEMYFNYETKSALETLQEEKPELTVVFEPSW

| AC50 [1] [nM] | AC50 [2] [nM] | SMILES |
| --- | --- | --- |
| > 20000 | 500 | CC(C)c1nn(CC(=O)Nc2ccc3nncn3c2)c(=O)cc1N1CC[C@@H]2C[C@@H]2C1 |
| > 20000 | 1280 | CC(C)c1nn(CC(=O)Nc2ccc3nncn3c2)c(=O)cc1N1CCCC1Cc1ccccn1 (stereo not given) |
| > 10000 | > 15000 | CC(C)c1nn(CC(=O)Nc2ccc3nncn3c2)c(=O)cc1Nc1ccccc1 |
| > 10000 | 1530 | CC(C)c1nn(CC(=O)Nc2ccc3nncn3c2)c(=O)cc1NCC1CC1 |
| > 10000 | 530 | CC(C)c1nn(CC(=O)Nc2ccc3nncn3c2)c(=O)cc1N1CC[C@@H](F)C1 |
| > 20000 | 420 | CC(C)c1nn(CC(=O)Nc2ccc3nncn3c2)c(=O)cc1N1CC[C@H](C)C1 |
| > 20000 | 1230 | CC(C)c1nn(CC(=O)Nc2ccc3nncn3c2)c(=O)cc1N1CCCCC1 |
| > 10000 | 330 | CC(C)c1nn(CC(=O)Nc2ccc3nncn3c2)c(=O)cc1N1CCCC1 |
| > 10000 | 90 | CC(C)c1nn(CC(=O)Nc2ccc3nncn3c2)c(=O)cc1N1CC2CC2C1 (stereo not given) |

| SMILES | AC50 [1] [nM] | AC50 [2] [nM] |
| --- | --- | --- |
| CC(C)c1nn(CC(=O)Nc2ccc3nncn3c2)c(=O)cc1N1C2CCC1CC2 | > 10000 | 1020 |
